{
  "source": "patent US8513439B2",
  "about": "“Antidepressant oral pharmaceutical compositions” (Wockhardt Limited, priority 2005, dated 2013)",
  "origin": "cited, not measured here",
  "key": {"[1]": {"system": "dopaminergic receptors", "details": "in vitro"}, "[2]": {"system": "adrenergic receptors", "details": "in vitro"}, "[3]": {"system": "cholinergic receptors", "details": "in vitro"}, "[4]": {"system": "histaminergic receptors", "details": "in vitro"}, "[5]": {"system": "monoamine oxidase (MAO)"}, "[6]": {"details": "in vivo"}},
  "data": [
    {"molecule": "CNCC[C@H](Oc1cccc2ccccc12)c1cccs1", "note": "[Duloxetine, (S)—N-methyl-3-(1-naphthyloxy)-3-(2-thienyl)propan-1-amine]", "values": [
      {"measurement": "affinity for dopaminergic receptors", "setting": "[1]", "result": "no significant affinity"},
      {"measurement": "affinity for adrenergic receptors", "setting": "[2]", "result": "no significant affinity"},
      {"measurement": "affinity for cholinergic receptors", "setting": "[3]", "result": "no significant affinity"},
      {"measurement": "affinity for histaminergic receptors", "setting": "[4]", "result": "no significant affinity"},
      {"measurement": "inhibition of monoamine oxidase (MAO)", "setting": "[5]", "result": "does not inhibit"},
      {"measurement": "dosage hydrolyzed to 1-naphthol", "setting": "pH of 1.0, within one hour", "result": 50, "unit": "%"},
      {"measurement": "dosage degraded to 1-Naphthol", "setting": "pH of 2.0, in one hour", "result": 10, "unit": "%"},
      {"measurement": "time for 10% degradation", "setting": "pH of 4.0", "result": "up to 63 hours"},
      {"measurement": "enzymes metabolizing to inactive metabolites in the liver", "setting": "[6]", "result": "CYP1A2 and CYP2D6"},
      {"measurement": "protein bound", "setting": "[6]", "result": "> 90", "unit": "%"}
    ]}
  ]
}
